Series [1] deals with Mus musculus. In words: Antiinflammatory activity in oxazolone-induced delayed type hypersensitivity BALB/c mouse model assessed as ear weight at 0.5 mg applied topically on ear administered 3 hrs prior to oxazolone challenge on day 7 to 12 post sensitization followed by re-administration of compound on day 13 to 18 without oxazolone challenge measured on day 19 (reference value: 30.2 +/- 0.7 mg). It counts as functional.

For series [2], the system named is Mus musculus. In words: Antiinflammatory activity in arachidonic acid-induced ear dermatitis ICR mouse model assessed as reduction in ear swelling at 0.3 mg administered twice tropically 30 mins prior and 15 mins after arachidonic acid addition measured 60 mins post arachidonic acid challenge relative to control. It counts as functional.
For series [3], the system named is Mus musculus. As to the kind of experiment: Antiinflammatory activity in arachidonic acid-induced ear dermatitis ICR mouse model assessed as reduction in ear swelling at 3 mg administered twice tropically 30 mins prior and 15 mins after arachidonic acid addition measured 60 mins post arachidonic acid challenge relative to control. It counts as functional.
Series [4] concerns Mus musculus. In words: Antiinflammatory activity in arachidonic acid-induced ear dermatitis ICR mouse model assessed as reduction in ear swelling at 1 mg administered twice tropically 30 mins prior and 15 mins after arachidonic acid addition measured 60 mins post arachidonic acid challenge relative to control. The series is classed as functional.
The test system of series [5] is Mus musculus. In words: CNS toxicity in sc dosed mouse model of acetic acid-induced writhing assessed as lowest dose causing side effects. It counts as organism-based. The settings on record: in vivo.
Series [6] is described as follows: Displacement of [3H]-DTG from sigma 2 receptor in rat liver membranes after 120 mins by scintillation counting. The series is classed as cell membranes, Membrane.
Series [7] relates to Mus musculus. In words: Antiinflammatory activity in arachidonic acid-induced ear dermatitis ICR mouse model assessed as reduction in ear swelling at 0.1 mg administered twice tropically 30 mins prior and 15 mins after arachidonic acid addition measured 60 mins post arachidonic acid challenge relative to control. The series is classed as functional.
Series [8] relates to Mus musculus. In words: Antiinflammatory activity in oxazolone-induced delayed type hypersensitivity BALB/c mouse model assessed as ear weight at 2.5 mg applied topically on ear administered 3 hrs prior to oxazolone challenge on day 7 to 12 post sensitization followed by re-administration of compound on day 13 to 18 without oxazolone challenge measured on day 19 (reference value: 30.2 +/- 0.7 mg). The series is classed as functional.

Series [9] concerns Mus musculus. As to the kind of experiment: Antinociceptive activity in sc dosed mouse model of acetic acid-induced writhing. The series is classed as functional.
Series [10] is described as follows: Displacement of [3H]-(+)-MK 801 from PCP binding site of NMDA receptor in pig brain cortex membranes after 120 mins by solid scintillation counting. It counts as cell membranes, Sus scrofa.
In a further series the target is Mu-type opioid receptor (Cavia porcellus, UniProt P97266). As to the kind of experiment: Displacement of [3H]DAMGO from mu-type opioid receptor in guinea pig brain membranes after 120 mins by solid scintillation counting. It counts as cell membranes, Membrane.
Mu-type opioid receptor, sequence (P97266 whole entry): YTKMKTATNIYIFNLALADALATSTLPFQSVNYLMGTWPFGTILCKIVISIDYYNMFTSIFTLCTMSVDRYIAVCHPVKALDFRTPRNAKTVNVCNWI
Series [11] in a line: Displacement of [3H]DPDPE from delta-type opioid receptor in guinea pig brain membranes after 120 mins by solid scintillation counting. It counts as cell membranes, Cavia porcellus, Membrane.
For series [12], the target named is Kappa-type opioid receptor (Homo sapiens, UniProt P41145). In words: Agonist activity at recombinant human kappa-type opioid receptor expressed in HEK293 cells after 30 mins by [35S]GTPgammaS binding assay. It counts as functional, cell-based.
Kappa-type opioid receptor (Homo sapiens, UniProt P41145), sequence (P41145 whole entry): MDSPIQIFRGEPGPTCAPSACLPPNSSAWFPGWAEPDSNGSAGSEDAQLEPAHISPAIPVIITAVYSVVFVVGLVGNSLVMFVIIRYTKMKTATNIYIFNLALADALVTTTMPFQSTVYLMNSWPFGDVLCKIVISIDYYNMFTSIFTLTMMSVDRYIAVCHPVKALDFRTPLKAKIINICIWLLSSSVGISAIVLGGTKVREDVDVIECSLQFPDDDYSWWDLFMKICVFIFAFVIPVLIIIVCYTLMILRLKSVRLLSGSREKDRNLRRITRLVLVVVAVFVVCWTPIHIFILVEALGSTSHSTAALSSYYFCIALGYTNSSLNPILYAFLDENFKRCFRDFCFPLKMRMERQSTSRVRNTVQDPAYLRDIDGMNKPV
Series [13] deals with Kappa-type opioid receptor (Cavia porcellus, UniProt P41144). As to the kind of experiment: Displacement of [3H]U-69,593 from kappa-type opioid receptor in guinea pig brain membranes after 120 mins by solid scintillation counting. It counts as cell membranes, Membrane.
Kappa-type opioid receptor (Cavia porcellus, UniProt P41144), sequence (P41144 whole entry): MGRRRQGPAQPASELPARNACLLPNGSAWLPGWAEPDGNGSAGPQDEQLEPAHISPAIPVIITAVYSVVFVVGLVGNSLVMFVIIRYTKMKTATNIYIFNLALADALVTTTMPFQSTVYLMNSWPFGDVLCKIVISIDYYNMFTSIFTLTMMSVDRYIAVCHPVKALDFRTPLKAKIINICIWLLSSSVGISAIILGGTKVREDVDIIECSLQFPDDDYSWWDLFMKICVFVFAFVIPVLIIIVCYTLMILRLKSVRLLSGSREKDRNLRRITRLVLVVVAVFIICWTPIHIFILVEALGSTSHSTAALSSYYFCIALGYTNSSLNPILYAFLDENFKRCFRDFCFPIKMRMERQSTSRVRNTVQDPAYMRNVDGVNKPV
The subject of series [14] is Mus musculus. In words: Antiinflammatory activity in arachidonic acid-induced ear dermatitis ICR mouse model assessed as reduction in ear swelling at 3 mg administered tropically 30 mins prior and 15 min after arachidonic acid addition measured 60 mins post arachidonic acid challenge relative to control. The series is classed as functional.
The nature of series [15]: Lipophilicity, logD of the compound at pH 7.4 by LC/MS analysis. The series is classed as physicochemical. The following applies: buffer.
Series [16] relates to Mus musculus. As to the kind of experiment: Antiinflammatory activity in tropically administered oxazolone-induced delayed type hypersensitivity BALB/c mouse model assessed as reduction in CD4+ cells per 0.1 mm2 at 2.5 mg administered 3 hrs prior to oxazolone challenge on day 7 to 12 post sensitization followed by re-administration of compound on day 13 to 18 without oxazolone challenge measured on day 19 by DAPI-staining based fluorescence microscopic analysis relative to control. It counts as functional.

Series [17] has as its system Mus musculus. As to the kind of experiment: Antiinflammatory activity in tropically administered oxazolone-induced delayed type hypersensitivity BALB/c mouse model assessed as reduction in CD8+ cells per 0.1 mm2 at 2.5 mg administered 3 hrs prior to oxazolone challenge on day 7 to 12 post sensitization followed by re-administration of compound on day 13 to 18 without oxazolone challenge measured on day 19 by DAPI-staining based fluorescence microscopic analysis relative to control. The series is classed as functional.

`COC(=O)N1CCN(C(=O)Cc2ccc(Cl)c(Cl)c2)[C@@H]2[C@@H](N3CCCC3)CCC[C@@H]21`: the Activity with Mus musculus [1] stood at 27.5 mg; in the series on Mus musculus [8], 28.2 mg. Moreover, the “inhibition (INH)” value in the series on Mus musculus [2] is recorded as 27%; in the series with Mus musculus [3], 51%; in the series on Mus musculus [4] it was 27%; in the series with Mus musculus [7] it was 23%. For the same molecule, the MTC in the series with Mus musculus [5] worked out at 0.06 mg/kg. This molecule gave a Ki in series [6] of 252 nM. Further, in the series with Mus musculus [9], it took a dose of 0.26 mg/kg to reach the 50% effect level (ED50).
For the molecule `CN(C)S(=O)(=O)N1CCN(C(=O)Cc2ccc(Cl)c(Cl)c2)[C@@H]2[C@@H](N3CCCC3)CCC[C@@H]21`, the Ki came to 2500 nM in [10], 21 nM on Mu-type opioid receptor, 11 nM in [11] and 0.95 nM in [13]. Besides, the EC50 in series [12] worked out at 2.2 nM.
Turning to `COc1ccc2c(c1)c(CC(=O)O)c(C)n2C(=O)c1ccc(Cl)cc1` [INDOMETHACIN], the figures for the “inhibition (INH)” value with Mus musculus [14], in the series on Mus musculus [3] and in the series with Mus musculus [7] were 38%, 38 - 65% and 38 - 65%, respectively.
With `CS(=O)(=O)N1CCN(C(=O)Cc2ccc(Cl)c(Cl)c2)[C@@H]2[C@@H](N3CC[C@H](O)C3)CCC[C@@H]21`, the Ki is 336 nM at Mu-type opioid receptor, 367 nM in [11] and 0.63 nM in [13]. The “inhibition (INH)” value in the series with Mus musculus [2] is recorded as -4%; in the series on Mus musculus [3] it was 56%; with Mus musculus [16], 45%; with Mus musculus [4], 32%; with Mus musculus [7] it was -4%; with Mus musculus [17], 45%. Besides, the logD in series [15] worked out at 2.41. For the same molecule, the EC50 in series [12] came to 1.8 nM.

For the origin of these results see ChEMBL document CHEMBL4007424, “Design and Synthesis of Enantiomerically Pure Decahydroquinoxalines as Potent and Selective κ-Opioid Receptor Agonists with Anti-Inflammatory Activity in Vivo” (J Med Chem, 2017).
